# From ChEMBL document CHEMBL1909046, “DrugMatrix in vitro pharmacology data”
# pIC50, pKi: −log10 of the molar value.
# Tested on: not listed separately
# Assay: DRUGMATRIX: Sigma2 radioligand binding (ligand: [3H] Ifenprodil)
# Assay type: cell membranes, Rattus norvegicus, Wistar, Brain, Membrane
# Conditions: Not Active = under 50% inhibition at 10 µM
SMILES,IC50,Ki
N=C(N)N/N=C/c1c(Cl)cccc1Cl [GUANABENZ],Not Active,Not Active
C[C@]12CCC(=O)C=C1CC[C@@H]1[C@@H]2[C@@H](O)C[C@@]2(C)[C@H]1CC[C@]2(O)C(=O)CO [HYDROCORTISONE],Not Active,Not Active
NC[C@H]1O[C@H](O[C@H]2[C@H](O)[C@@H](O[C@H]3O[C@H](CO)[C@@H](O)[C@H](N)[C@H]3O)[C@H](N)C[C@@H]2N)[C@H](O)[C@@H](O)[C@@H]1O [KANAMYCIN],Not Active,Not Active
CC(C(=O)O)c1ccc(CC2CCCC2=O)cc1 (stereo unspecified) [LOXOPROFEN],Not Active,Not Active
Cc1cccc(Nc2ccccc2C(=O)O)c1C [MEFENAMIC ACID],Not Active,Not Active
CC(=O)O[C@]1(C(C)=O)CC[C@H]2[C@@H]3C=C(C)C4=CC(=O)CC[C@]4(C)[C@H]3CC[C@@]21C [MEGESTROL ACETATE],Not Active,Not Active
COc1ccccc1OCC(O)COC(N)=O (stereo unspecified) [METHOCARBAMOL],Not Active,Not Active
CN(Cc1cnc2nc(N)nc(N)c2n1)c1ccc(C(=O)N[C@@H](CCC(=O)O)C(=O)O)cc1 [METHOTREXATE],Not Active,Not Active
COC(=O)c1ccccc1O [METHYL SALICYLATE],Not Active,Not Active

# Target: C-C chemokine receptor type 2 (Homo sapiens, UniProt P41597); note: in other assays of this panel Not Active means under 50% inhibition at 10 µM
# Assay type: cell membranes, CHO-K1, Membrane
# Conditions: cho-k1
# C-C chemokine receptor type 2, sequence (P41597 whole entry): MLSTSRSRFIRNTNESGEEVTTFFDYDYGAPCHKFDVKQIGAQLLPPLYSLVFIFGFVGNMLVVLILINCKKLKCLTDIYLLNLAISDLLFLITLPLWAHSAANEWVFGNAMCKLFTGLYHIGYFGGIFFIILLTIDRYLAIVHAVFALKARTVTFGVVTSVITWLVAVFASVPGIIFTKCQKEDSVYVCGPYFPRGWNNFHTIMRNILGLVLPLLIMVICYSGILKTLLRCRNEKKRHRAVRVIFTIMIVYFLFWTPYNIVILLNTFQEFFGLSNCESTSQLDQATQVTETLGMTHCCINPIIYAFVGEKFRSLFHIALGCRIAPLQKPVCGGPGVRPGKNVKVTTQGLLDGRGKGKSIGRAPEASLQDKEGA
row,SMILES,IC50
1,N=C(N)N/N=C/c1c(Cl)cccc1Cl [GUANABENZ],Not Active
2,C[C@]12CCC(=O)C=C1CC[C@@H]1[C@@H]2[C@@H](O)C[C@@]2(C)[C@H]1CC[C@]2(O)C(=O)CO [HYDROCORTISONE],Not Active
3,NC[C@H]1O[C@H](O[C@H]2[C@H](O)[C@@H](O[C@H]3O[C@H](CO)[C@@H](O)[C@H](N)[C@H]3O)[C@H](N)C[C@@H]2N)[C@H](O)[C@@H](O)[C@@H]1O [KANAMYCIN],Not Active
4,CC(C(=O)O)c1ccc(CC2CCCC2=O)cc1 (stereo unspecified) [LOXOPROFEN],Not Active
5,Cc1cccc(Nc2ccccc2C(=O)O)c1C [MEFENAMIC ACID],Not Active
6,CC(=O)O[C@]1(C(C)=O)CC[C@H]2[C@@H]3C=C(C)C4=CC(=O)CC[C@]4(C)[C@H]3CC[C@@]21C [MEGESTROL ACETATE],Not Active
7,COc1ccccc1OCC(O)COC(N)=O (stereo unspecified) [METHOCARBAMOL],Not Active
8,CN(Cc1cnc2nc(N)nc(N)c2n1)c1ccc(C(=O)N[C@@H](CCC(=O)O)C(=O)O)cc1 [METHOTREXATE],Not Active
9,COC(=O)c1ccccc1O [METHYL SALICYLATE],Not Active

# Tested on: not listed separately
# Assay: DRUGMATRIX: Imidazoline I2, Central radioligand binding (ligand: [3H] Idazoxan)
# Assay type: cell membranes, Rattus norvegicus, Wistar, Cerebral cortex, Membrane
# Conditions: Not Active = under 50% inhibition at 10 µM
SMILES,IC50,Ki
C[C@]12CCC(=O)C=C1CC[C@@H]1[C@@H]2[C@@H](O)C[C@@]2(C)[C@H]1CC[C@]2(O)C(=O)CO [HYDROCORTISONE],Not Active,Not Active
NC[C@H]1O[C@H](O[C@H]2[C@H](O)[C@@H](O[C@H]3O[C@H](CO)[C@@H](O)[C@H](N)[C@H]3O)[C@H](N)C[C@@H]2N)[C@H](O)[C@@H](O)[C@@H]1O [KANAMYCIN],Not Active,Not Active
CC(C(=O)O)c1ccc(CC2CCCC2=O)cc1 (stereo unspecified) [LOXOPROFEN],Not Active,Not Active
Cc1cccc(Nc2ccccc2C(=O)O)c1C [MEFENAMIC ACID],Not Active,Not Active
CC(=O)O[C@]1(C(C)=O)CC[C@H]2[C@@H]3C=C(C)C4=CC(=O)CC[C@]4(C)[C@H]3CC[C@@]21C [MEGESTROL ACETATE],Not Active,Not Active
COc1ccccc1OCC(O)COC(N)=O (stereo unspecified) [METHOCARBAMOL],Not Active,Not Active
CN(Cc1cnc2nc(N)nc(N)c2n1)c1ccc(C(=O)N[C@@H](CCC(=O)O)C(=O)O)cc1 [METHOTREXATE],Not Active,Not Active
COC(=O)c1ccccc1O [METHYL SALICYLATE],Not Active,Not Active

# Same assay, conditions: Not Active = under 50% inhibition at 10 µM; read-out: IC50
row,SMILES,pIC50
1,N=C(N)N/N=C/c1c(Cl)cccc1Cl [GUANABENZ],7.74

# Same assay, conditions: Not Active = under 50% inhibition at 10 µM; read-out: Ki
row,SMILES,pKi
1,N=C(N)N/N=C/c1c(Cl)cccc1Cl [GUANABENZ],7.92

# Target: T1, Progesterone receptor (Bos taurus, UniProt Q690N0)
# T1 sequence (Q690N0 whole entry): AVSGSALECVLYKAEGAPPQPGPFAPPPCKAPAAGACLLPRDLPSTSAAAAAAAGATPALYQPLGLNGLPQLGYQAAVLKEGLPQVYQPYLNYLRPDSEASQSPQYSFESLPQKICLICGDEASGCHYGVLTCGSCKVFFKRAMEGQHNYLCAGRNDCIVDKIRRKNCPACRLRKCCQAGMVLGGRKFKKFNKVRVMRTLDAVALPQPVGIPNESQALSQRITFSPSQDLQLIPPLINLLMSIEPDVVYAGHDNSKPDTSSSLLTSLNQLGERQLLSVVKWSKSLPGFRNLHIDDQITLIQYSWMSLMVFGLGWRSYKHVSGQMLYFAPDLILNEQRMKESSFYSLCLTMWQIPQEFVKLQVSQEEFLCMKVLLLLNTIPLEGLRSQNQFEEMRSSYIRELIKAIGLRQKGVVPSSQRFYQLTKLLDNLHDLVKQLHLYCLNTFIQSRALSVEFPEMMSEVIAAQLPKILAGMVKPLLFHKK
# Assay: DRUGMATRIX: Progesterone radioligand binding (ligand: [3H] R-5020)
# Assay type: tissue-based, Uterus
# Conditions: Not Active = under 50% inhibition at 10 µM
row,SMILES,IC50
1,N=C(N)N/N=C/c1c(Cl)cccc1Cl [GUANABENZ],Not Active
2,C[C@]12CCC(=O)C=C1CC[C@@H]1[C@@H]2[C@@H](O)C[C@@]2(C)[C@H]1CC[C@]2(O)C(=O)CO [HYDROCORTISONE],Not Active
3,NC[C@H]1O[C@H](O[C@H]2[C@H](O)[C@@H](O[C@H]3O[C@H](CO)[C@@H](O)[C@H](N)[C@H]3O)[C@H](N)C[C@@H]2N)[C@H](O)[C@@H](O)[C@@H]1O [KANAMYCIN],Not Active
4,CC(C(=O)O)c1ccc(CC2CCCC2=O)cc1 (stereo unspecified) [LOXOPROFEN],Not Active
5,Cc1cccc(Nc2ccccc2C(=O)O)c1C [MEFENAMIC ACID],Not Active
6,COc1ccccc1OCC(O)COC(N)=O (stereo unspecified) [METHOCARBAMOL],Not Active
7,CN(Cc1cnc2nc(N)nc(N)c2n1)c1ccc(C(=O)N[C@@H](CCC(=O)O)C(=O)O)cc1 [METHOTREXATE],Not Active
8,COC(=O)c1ccccc1O [METHYL SALICYLATE],Not Active

# Same assay, conditions: Not Active = under 50% inhibition at 10 µM; read-out: IC50
row,SMILES,pIC50
1,CC(=O)O[C@]1(C(C)=O)CC[C@H]2[C@@H]3C=C(C)C4=CC(=O)CC[C@]4(C)[C@H]3CC[C@@]21C [MEGESTROL ACETATE],7.96

# Same assay, conditions: Not Active = under 50% inhibition at 10 µM; read-out: Ki
row,SMILES,pKi
1,CC(=O)O[C@]1(C(C)=O)CC[C@H]2[C@@H]3C=C(C)C4=CC(=O)CC[C@]4(C)[C@H]3CC[C@@]21C [MEGESTROL ACETATE],8.84

# Target: Cytochrome P450 3A4 (Homo sapiens, UniProt P08684); note: in other assays of this panel Not Active means under 50% inhibition at 10 µM
# Conditions: bti-tn-5b1-4
# Cytochrome P450 3A4, sequence (P08684 whole entry): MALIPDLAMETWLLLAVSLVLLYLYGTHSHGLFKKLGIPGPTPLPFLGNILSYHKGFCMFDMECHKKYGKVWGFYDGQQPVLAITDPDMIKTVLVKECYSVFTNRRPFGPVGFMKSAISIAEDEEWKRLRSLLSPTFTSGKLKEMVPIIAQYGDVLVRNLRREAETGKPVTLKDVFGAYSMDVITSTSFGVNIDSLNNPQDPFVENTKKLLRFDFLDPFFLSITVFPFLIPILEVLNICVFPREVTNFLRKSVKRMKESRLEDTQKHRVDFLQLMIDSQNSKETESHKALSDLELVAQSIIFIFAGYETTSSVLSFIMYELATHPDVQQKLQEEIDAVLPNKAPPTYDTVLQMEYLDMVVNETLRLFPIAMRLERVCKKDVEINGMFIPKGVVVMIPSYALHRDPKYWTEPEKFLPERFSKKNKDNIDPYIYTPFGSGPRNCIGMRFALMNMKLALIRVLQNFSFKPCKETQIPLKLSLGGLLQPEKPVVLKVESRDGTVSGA
SMILES,IC50,Ki
N=C(N)N/N=C/c1c(Cl)cccc1Cl [GUANABENZ],Not Active,Not Active
C[C@]12CCC(=O)C=C1CC[C@@H]1[C@@H]2[C@@H](O)C[C@@]2(C)[C@H]1CC[C@]2(O)C(=O)CO [HYDROCORTISONE],Not Active,Not Active
NC[C@H]1O[C@H](O[C@H]2[C@H](O)[C@@H](O[C@H]3O[C@H](CO)[C@@H](O)[C@H](N)[C@H]3O)[C@H](N)C[C@@H]2N)[C@H](O)[C@@H](O)[C@@H]1O [KANAMYCIN],Not Active,Not Active
CC(C(=O)O)c1ccc(CC2CCCC2=O)cc1 (stereo unspecified) [LOXOPROFEN],Not Active,Not Active
Cc1cccc(Nc2ccccc2C(=O)O)c1C [MEFENAMIC ACID],Not Active,Not Active
CC(=O)O[C@]1(C(C)=O)CC[C@H]2[C@@H]3C=C(C)C4=CC(=O)CC[C@]4(C)[C@H]3CC[C@@]21C [MEGESTROL ACETATE],Not Active,Not Active
COc1ccccc1OCC(O)COC(N)=O (stereo unspecified) [METHOCARBAMOL],Not Active,Not Active
CN(Cc1cnc2nc(N)nc(N)c2n1)c1ccc(C(=O)N[C@@H](CCC(=O)O)C(=O)O)cc1 [METHOTREXATE],Not Active,Not Active
COC(=O)c1ccccc1O [METHYL SALICYLATE],Not Active,Not Active

# Target: Voltage-gated inwardly rectifying potassium channel KCNH2 (Homo sapiens, UniProt Q12809); note: in other assays of this panel Not Active means under 50% inhibition at 10 µM
# Conditions: hek293
# Voltage-gated inwardly rectifying potassium channel KCNH2, sequence (Q12809 whole entry): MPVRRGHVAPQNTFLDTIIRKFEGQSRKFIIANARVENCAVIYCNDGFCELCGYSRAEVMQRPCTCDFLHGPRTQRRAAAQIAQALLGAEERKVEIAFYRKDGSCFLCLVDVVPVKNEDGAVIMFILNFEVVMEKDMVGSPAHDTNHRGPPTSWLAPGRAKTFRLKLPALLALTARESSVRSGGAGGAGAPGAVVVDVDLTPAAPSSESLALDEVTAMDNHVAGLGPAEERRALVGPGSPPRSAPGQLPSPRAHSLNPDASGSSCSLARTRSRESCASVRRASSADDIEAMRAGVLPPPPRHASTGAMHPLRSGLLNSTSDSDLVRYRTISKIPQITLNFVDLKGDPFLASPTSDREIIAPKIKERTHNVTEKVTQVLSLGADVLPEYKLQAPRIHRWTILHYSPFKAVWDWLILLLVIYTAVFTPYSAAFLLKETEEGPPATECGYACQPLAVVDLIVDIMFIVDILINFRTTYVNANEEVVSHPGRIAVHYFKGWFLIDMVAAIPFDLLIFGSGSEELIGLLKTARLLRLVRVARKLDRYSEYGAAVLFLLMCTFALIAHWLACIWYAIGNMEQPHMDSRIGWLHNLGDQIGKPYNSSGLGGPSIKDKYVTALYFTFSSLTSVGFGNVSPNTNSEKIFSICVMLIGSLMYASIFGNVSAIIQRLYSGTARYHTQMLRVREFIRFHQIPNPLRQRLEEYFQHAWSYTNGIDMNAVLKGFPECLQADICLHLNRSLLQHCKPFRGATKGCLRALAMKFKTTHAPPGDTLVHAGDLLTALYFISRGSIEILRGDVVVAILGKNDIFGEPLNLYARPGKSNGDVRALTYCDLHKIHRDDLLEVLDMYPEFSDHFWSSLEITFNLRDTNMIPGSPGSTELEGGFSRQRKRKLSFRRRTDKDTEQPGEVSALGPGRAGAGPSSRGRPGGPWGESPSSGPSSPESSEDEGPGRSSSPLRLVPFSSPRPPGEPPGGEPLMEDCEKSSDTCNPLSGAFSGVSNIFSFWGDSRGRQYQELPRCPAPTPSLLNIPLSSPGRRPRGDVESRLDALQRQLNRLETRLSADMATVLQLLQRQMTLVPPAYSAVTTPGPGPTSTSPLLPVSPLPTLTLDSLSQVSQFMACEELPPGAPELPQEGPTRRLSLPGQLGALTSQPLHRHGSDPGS
SMILES,IC50,Ki
N=C(N)N/N=C/c1c(Cl)cccc1Cl [GUANABENZ],Not Active,Not Active
C[C@]12CCC(=O)C=C1CC[C@@H]1[C@@H]2[C@@H](O)C[C@@]2(C)[C@H]1CC[C@]2(O)C(=O)CO [HYDROCORTISONE],Not Active,Not Active
NC[C@H]1O[C@H](O[C@H]2[C@H](O)[C@@H](O[C@H]3O[C@H](CO)[C@@H](O)[C@H](N)[C@H]3O)[C@H](N)C[C@@H]2N)[C@H](O)[C@@H](O)[C@@H]1O [KANAMYCIN],Not Active,Not Active
CC(C(=O)O)c1ccc(CC2CCCC2=O)cc1 (stereo unspecified) [LOXOPROFEN],Not Active,Not Active
Cc1cccc(Nc2ccccc2C(=O)O)c1C [MEFENAMIC ACID],Not Active,Not Active
CC(=O)O[C@]1(C(C)=O)CC[C@H]2[C@@H]3C=C(C)C4=CC(=O)CC[C@]4(C)[C@H]3CC[C@@]21C [MEGESTROL ACETATE],Not Active,Not Active
COc1ccccc1OCC(O)COC(N)=O (stereo unspecified) [METHOCARBAMOL],Not Active,Not Active
CN(Cc1cnc2nc(N)nc(N)c2n1)c1ccc(C(=O)N[C@@H](CCC(=O)O)C(=O)O)cc1 [METHOTREXATE],Not Active,Not Active
COC(=O)c1ccccc1O [METHYL SALICYLATE],Not Active,Not Active
